Measurements taken from US6368788B1 (priority 1987, dated 2002).

Columns and labels:
[1] = Occupational radiation exposure to 100-200 R; set-up: species or system human; conditions: in vivo
Source text: A total of 263 patients and 18 control patients sustained exposure to 100-200 Roentgens of occupational radiation over a period of several weeks.

[2] = tested on: peripheral blood lymphocytes; test: Protocol A3 Group 2: pyoderma in patients with SLE; type: in vivo, human
Source text: Group 2 constituted 22 patients with diagnosed forms of systemic lupus erythematosus (SLE): ie., 14 males and 8 females ranging in age from 21 to 62 years of age. The time since presentation with a diagnosis of SLE in this patient population ranged from several months to 18 years. All SLE patients in this trial had dermal manifestations of lupus erythematosus that included discoid disseminated forms of the disease. All patients had experienced chronic and recurrent episodes of pyoderma, and all had previously received conventional therapy, including use of antibiotics, delagil, and external corticosteroid ointments without effect. Patients in Group 2 were randomly divided into two treatment groups, the first consisting of 13 patients (9 men and 4 women) treated with L-Glu-L-Trp according to Therapy A, below, and the second consisting of 9 patients (5 men and 4 women) treated (as a control) according to Therapy B, ie., conventional therapeutic methods using anti-malarial preparations and vasoactive agents according to standard dosages and schedules.
In treatment Protocol A, all patients received L-Glu-L-Trp in combination with antibiotics. […]
Local antibiotics were administered as follows: Ampicillin (4), oxacillin (4), Levomycetin (1), tetracycline (9), Rondomycin (2), deoxycycline (8), cephalexin (2), and Rifampicin (1).

[3] = DTH sensitivity to tuberculin; type: in vivo, guinea pigs
Experimental: In the second study, affects of L-Glu-L-Trp on DTH sensitivity were investigated in guinea pigs sensitized to tuberculin. L-Glu-L-Trp was administered ip at 10 μg/kg or 1000 μg/kg on the day of an intradermal sensitization with tuberculin antigen.

Dengue virus = test: Hemorrhagic Dengue Fever Protocol A; type: in vivo, human
Experimental: L-Glu-L-Trp was administered to 21 patients with hemorrhagic Dengue Fever, and 28 patients receiving conventional therapy served as controls. L-Glu-L-Trp was administered im single daily doses of 100 μg on each of 5 consecutive days as an adjunct to ongoing conventional therapy. […] The investigators also observed that L-Glu-L-Trp treated patients experienced a reduction in muscle and bone pain. Immunological indices in peripheral blood were also normalized.
Forty nine patients (20-30 years of age; Kinh nationality) with diagnosed Dengue Fever were entered into the trial. The patients were referred to the 175th Military Hospital in Ho Chi Minh City at the time of an epidemic of Dengue fever in the South […] Republic of Vietnam. Diagnosis was based on the criteria recommended by the World Health Organization (1986) using medical histories, and clinical and laboratory data. Serological analyses were conducted at the Arbovirus Infectious Diseases Laboratory of the Pasteur Institute in Ho Chi Minh City. […] Dyspeptic toxicosis, i.e., nausea and vomiting were rarely encountered (15% and 11.7%, respectively). Joint and muscle pains were pronounced, most commonly involving the spinal joints in the lumbar region (96.6%), joints of the pelvic girdle (82.2%), the ulnar joints (53.4%), as well as, the muscles of the lumbar (69%) and abdominal regions (69%). Exanthema (40.7%) and lymphadenopathy (46.7%) were evident in certain patients. […] Leukocytes during peak episodes of disease were recorded to be 4.60±0.17×10^9/L, and the absolute number of lymphocytes varied widely from 0.95 to 4.29×10^9/L.
Group 1 received conventional maintenance therapy consisting of detoxifying preparations and methods, e.g., fluids, fever control agents and the like. Group 2 received combination therapy, i.e., maintenance therapy and L-Glu-L-Trp, but only during periods of acute disease activity. L-Glu-L-Trp was administered at a dosage of 500 μg. The efficacy of the respective treatment protocols was evaluated by recording the most frequently used clinical indicia of Dengue disease activity: namely, the clinical indicia recorded in TABLE 45.

[4] = Group 2 pyoderma in SLE, after L-Glu-L-Trp Therapy (n = 13)
[5] = 10 μg/kg ip on day of tuberculin sensitization
[6] = 1000 μg/kg ip on day of tuberculin sensitization
[7] = Combination L-Glu-L-Trp Therapy (n = 21)

L-Glu-L-Trp
Outcome [1]: restoration of normal, or near normal, peripheral blood immune indices in all patients
B-Lymphocytes [2, 4]: 0.16 ± 0.01 ×10^9/L
B-Lymphocytes % Normal Value [2, 4]: (52%)
B-Lymphocytes (%) [2, 4]: 6.8 ± 0.9%
Basophils (%) [2, 4]: 0.1 ± 0.1%
Blast Transformation, Con-A [2, 4]: 64.1 ± 6.5 % of PBL
Blast Transformation, PHA [2, 4]: 47.4 ± 3.5 % of PBL
Eosinophils (%) [2, 4]: 2.2 ± 0.1%
Erythrocytes [2, 4]: 4.7 ± 0.1 10^12/L
IgA [2, 4]: 2.85 ± 0.32 g/L
IgA % Normal Value [2, 4]: (150%)
IgG [2, 4]: 14.8 ± 1.27 g/L
IgG % Normal Value [2, 4]: (137%)
IgM [2, 4]: 0.92 ± 0.12 g/L
IgM % Normal Value [2, 4]: (58%)
Leukocytes [2, 4]: 5.74 ± 0.12 ×10^9/L
Leukocytes % Normal Value [2, 4]: (86%)
Lymphocytes [2, 4]: 2.17 ± 0.21 ×10^9/L
Lymphocytes % Normal Value [2, 4]: (78%)
Lymphocytes, % [2, 4]: 36.4 ± 2.3%
Monocytes, % [2, 4]: 8.0 ± 0.7%
Neutrophils [2, 4]: 3.5 ± 0.7 ×10^9/L
Neutrophils, % [2, 4]: 55.3 ± 4.2%
Neutrophils, % Normal Value [2, 4]: (106%)
T-Lymphocytes [2, 4]: 1.13 ± 0.07 ×10^9/L
T-Lymphocytes % Normal Value [2, 4]: (66%)
T-Lymphocytes (%) [2, 4]: 44.3 ± 2.7%
T-helper [2, 4]: 0.87 ± 0.12 ×10^9/L
T-helper % Normal Value [2, 4]: (66%)
T-helper (%) [2, 4]: 26.5 ± 2.7%
T-suppressor [2, 4]: 0.53 ± 0.03 ×10^9/L
T-suppressor % Normal Value [2, 4]: (136%)
T-suppressor (%) [2, 4]: 21.2 ± 3.7%
Clinical outcome ([2]; human, in vivo): leads to a positive clinical effect and resolution of dermal rashes
Mean Skin Test Diameter ± S.D. Day 10 [3, 5]: 14.4 ± 1.3 mm
Mean Skin Test Diameter ± S.D. Day 20 [3, 5]: 15.1 ± 1.4 mm
Mean Skin Test Diameter ± S.D. Day 10 [3, 6]: 15.2 ± 1.3 mm
Mean Skin Test Diameter ± S.D. Day 20 [3, 6]: 13.9 ± 1.1 mm
DTH response to tuberculin antigen ([3]; day 10 or day 20): statistically significant increase in the DTH response
Duration of Symptom: Eye muscle pain (Dengue virus; [7]): 6.6 ± 0.8 h
Duration of Symptom: Fever, At day 2-4 of illness (Dengue virus; [7]): 4.7 ± 0.2 h
Duration of Symptom: Fever, At day 2-6 of illness (Dengue virus; [7]): 5.2 ± 0.3 h
Duration of Symptom: Headache (Dengue virus; [7]): 8.1 ± 0.9 h
Duration of Symptom: Hepatomegally (Dengue virus; [7]): 11.3 ± 0.8 h
Duration of Symptom: Insomnia (Dengue virus; [7]): 7.1 ± 0.7 h
Duration of Symptom: Joint pain (Dengue virus; [7]): 7.4 ± 0.7 h
Duration of Symptom: Loss of appetite (Dengue virus; [7]): 7.5 ± 0.8 h
Duration of Symptom: Lumbar pain (Dengue virus; [7]): 8.7 ± 0.7 h
Duration of Symptom: Skeletal muscle pain (Dengue virus; [7]): 7.7 ± 1.1 h
Duration of Symptom: Splenomegally (Dengue virus; [7]): 9.6 ± 0.7 h
Duration of Symptom: Waist/Pelvic girdle pain (Dengue virus; [7]): 8.1 ± 0.8 h
Duration of Symptom: Weakness (Dengue virus; [7]): 9.3 ± 0.8 h
Clinical outcome (Dengue virus; in vivo): decrease in fever, reduction of toxic symptoms
